± gives the expanded uncertainty stated by the source.
Settings: Liquid, Ebulliometric method (Recirculating still)

vapor or sublimation pressure (353.15 K) | vapor or sublimation pressure (373.15 K) | vapor or sublimation pressure (333.15 K) | SMILES
86.7 ± 3.1 kPa | – | – | CCC(C)(C)OC [2-methoxy-2-methylbutane]
74.1 ± 3.1 kPa | 135.5 ± 3.1 kPa | – | CCCOCCC [dipropyl ether]
– | – | 120.4 ± 3.2 kPa | COC(C)(C)C [2-methoxy-2-methylpropane]
1.3 kPa | 3.6 ± 3 kPa | 0.5 kPa | CN1CCCC1=O [N-methylpyrrolidone]
